Results published in ChEMBL document CHEMBL2384899, “Synthesis and structure-activity relationships of phosphonic arginine mimetics as inhibitors of the M1 and M17 aminopeptidases from Plasmodium falciparum” (J Med Chem, 2013).

Key:
[1] = Inhibition of Plasmodium falciparum recombinant M1 aminopeptidase expressed in Escherichia coli assessed as conversion of L-leucine-7-amido-4-methylcoumarin hydrochloride to NHMec preincubated for 10 mins prior to substrate addition by Dixon plot analysis
[2] = Inhibition of Plasmodium falciparum recombinant M17 leucyl aminopeptidase expressed in Escherichia coli assessed as conversion of L-leucine-7-amido-4-methylcoumarin hydrochloride to NHMec preincubated for 10 mins prior to substrate addition by Dixon plot analysis

N=C(N)Nc1cccc(C(N)P(=O)(O)O)c1 (stereo unspecified)
Ki [1]: > 1000 µM
Ki [2]: 0.16 µM

N=C(N)NCCCCC(N)P(=O)(O)O (stereo unspecified)
Ki [1]: 11 µM
Ki [2]: 268 µM

NCCCC(N)P(=O)(O)O (stereo unspecified)
Ki [1]: > 1000 µM
Ki [2]: > 1000 µM

N=C(N)Nc1ccc(CC(N)P(=O)(O)O)cc1 (stereo unspecified)
Ki [1]: > 1000 µM
Ki [2]: 63 µM

N=C(N)Nc1ccc(C(N)P(=O)(O)O)cc1 (stereo unspecified)
Ki [1]: 127 µM
Ki [2]: 1.8 µM

NC(c1ccc(-n2cccn2)cc1)P(=O)(O)O (stereo unspecified)
Ki [1]: 104 µM
Ki [2]: 0.011 µM

N=C(N)c1ccc(C(N)P(=O)(O)O)cc1 (stereo unspecified)
Ki [1]: 345 µM
Ki [2]: > 1000 µM

NC(N)=NCCCC(N)P(=O)(O)O (stereo unspecified)
Ki [1]: 193 µM
Ki [2]: > 1000 µM
